Reference: patent US5231216A, “Trans-2-acylaminocyclohexyloxyacyldipeptides in the form of mixtures of diastereoisomers thereof and in the form of pure diasteredisomers, process for the preparation thereof and pharmaceutical compositions containing the same” (Univerza Edvarda Kardelja v Ljubljana, priority 1990, dated 1993)
Like-named read-outs stand apart in the source and are kept apart here.

Columns and labels:
[1] = test system: lymphocytes B; assay: Determination of haemolytic plaques for the assessment of the maturation of lymphocytes B; type: in vivo, female HAN-NmRI strain mice; conditions: evaluation summary
Method: (§1) Immunological studies were performed on female HAN-NmRI strain mice of 3-4 weeks, weighing from 17-20 g.
A 1% suspension of sheep erythrocytes (Institute of Microbiology, Faculty of Medicine, Ljubljana, Yugoslavia) in physiological saline was used for the immunisation. First, individual mice were administered 0.2 ml of this suspension by i.p. injection, followed next day by 0.1 ml (1 μg/mouse) of the test substance. The immunisation was completed on the fifth day after the administration of sheep erythrocytes and the mice were sacrificed.
Their spleens were removed and homogenized in Parker 199 Medium with added aminoacids, streptomycin and sodium carbonate (Torlak, Beograd, Yugoslavia). The lymphocytes were separated on the Ficol Separating Medium (Pharmacia, Uppsala, Sweden). After repeated rinsing with Parker 199 Medium, the cells were resuspended in RPMI 1640 nutrient medium with added 10% of foetal calf serum and streptomycin. To 50 μl of the cell suspension, 450 μl of trypan blue were added and the cells were counted in Neubauer's chamber. The number of lymphocytes per ml of the cell suspension was calculated. […] After the completion of the incubation, the plaques were counted under microscope.
The number of plaques per 1×10^6 cells was calculated according to the following equations: [formula]

[2] = test system: Fibrosarcoma SA-1; conditions: for Time needed for the tumour growth to the volume of 150 mm^3, Number of days (± SD) / Growth delay (± SD): 5 doses; for Time needed for the tumour growth to the volume of 150 mm^3, Number of days (± SD): control 5.5 ± 0.8
Method: The studies were performed on A/J strain mice (Institute Rudjer Boskovic, Zagreb, Yugoslavia) of 8 to 10 weeks. All animals used in the same experiment were of the same sex and age.
Fibrosarcoma SA-1 was used as the experimental tumour model. Tumorous cells were obtained from the ascitic form of the SA-1 tumour of the syngeneic A/J mouse. They were implanted into animals dorsilaterally by s.c. injection of 5×10^5 tumour cells. The testing was started after the tumours had grown to a volume of 35 mm^3. The test substance was injected i.p. on five consecutive days in a dose of 2.5 or 25 μg. The growth of the tumours was monitored by measuring the diameters and the thickness of the tumours. The tumour volumes were calculated according to the formula 0.523×a×b×c (a, b and c being the tumour diameters).
The delay in the growth of each individual tumour was obtained by deducting the relevant time of growth of the tumour in the control group from the time needed for the growth of the tumour to reach the volume of 150 mm^3.

[3] = Pyrogenous activity according to USP XXII; type: in vivo; conditions: method of USP XXII
Method: The pyrogenous activity was determined according to the method of USP XXII.

[4] = test system: peritoneal macrophages; assay: Determination of the number of macrophages in peritoneal cavity washings; type: in vivo, female HAN-NmRI strain mice; conditions: daily doses 25, 2.5 and 0.25 μg on 3 days; after Brewer's thioglycolate stimulation
Method: as §1
(§2) In tests 1.1 to 1.5, the animals were first administered the Brewer's thioglycolate medium by i.p. injection, which was followed after 6 hours by the injection of 0.5 ml of a solution containing 25 μg, 2.5 μg and 0.25 μg respectively of N-acetyl-muramyl-L-alanyl-D-isoglutamine (muramyl dipeptide, MDP) or of N-[trans-2-(2'-acetylaminocyclohexyloxy)acetyl]-L-alanyl-D-glutaminic acid (compound 1, Example 12B). Equal doses were administered to the animals on days 2 and 3. On day 4 the animals were sacrificed and the spleen and the peritoneal macrophages were isolated.
The number of macrophages in the peritoneal cavity washings was determined three days after the stimulation with Brewer's thioglycolate medium. The cells were suspended in ice-cold RPMI 1640 medium, to which trypan blue was added, and counted in Neubauer's chamber.

[5] = test system: splenic lymphocytes (lymphocytes T) stimulated with concanavalin A; assay: Blast transformation of lymphocytes stimulated in vitro with concanavalin A after in vivo treatment; design: species or system female HAN-NmRI strain mice; conditions: for Amount of active thymidine incoporated in lymphocyte DNA (cpm), x ± s.e.m (n): control 10130 ± 476
Method: as §1, §2
Isolated splenic lymphocytes were prepared in a concentration of 1×10^6 /ml in the RPMI 1640 medium, to which there were added 10% of foetal calf serum (FCS) (Sera-Lab, Great Britain), 1 ml of 200 mM L-glutamine solution and 1 ml of an antibiotic solution (100 U/ml of penicillin and 100 μg/ml of streptomycin) for 100 ml of complete medium. To each flat bottom well of a microtitration plate (T grade, Nunc, Denmark) 100 μl of the cell suspension were distributed. The cells were stimulated in vitro by adding concanavalin A (con A)(Pharmacia, Sweden) at respective concentrations of 16, 8, and 4 μg/ml. Control lymphocyte cultures were grown in basal medium only. The cells were then incubated at 37° C., 5% CO2 and 95% humidity for 2 days, followed by the addition of tritium labelled thymidine. After 16 hours the samples were prepared for the measurement in a β-counter. The results were expressed as incorporation indexes with respect to the control group of the animals.

[6] = test system: peritoneal macrophages; assay: Activation of peritoneal macrophages (ferricytochrome C reduction) without additional PMA stimulation; type: in vivo, female HAN-NmRI strain mice; conditions: for Difference in absorbancies of the test sample and of the blank per mg of cell protein, x ± s.e.m (n): control 275 ± 26
Method: as §1, §2
(§3) The peritoneal cavity of the animals was rinsed with 4 ml of ice-cold RPMI 1640 medium. The cytolysis of erythrocytes was effected with 0.2% NaCl. The remaining cells were washed twice in a cooled centrifuge at 4° and 1500 rpm for 5 minutes with ice-cold RPMI 1640 medium. The cells were re-suspended and the concentration was adjusted to 1.5×10^6 /ml. The cell suspension was distributed among the flat bottom wells of a microtitration palte (T grade, Nunc, Denmark). After incubating for 2 hours at 37° C., 5% CO2 and 95% humidity, the wells were rinsed with warm RPMI 1640 medium and the adhering macrophages were used for testing.
(§4) After incubating for 90 minutes at 37° C., 5% CO2 and 95% humidity, the absorbance was measured at the wavelength of 570 nm.
(§5) The results are shown in Table 2 as the difference in the absorbance of the test sample and of the blank, calculated for 1 mg of cell protein.

[7] = test system: splenic lymphocytes T; assay: Determination of the number of lymphocytes T (splenic, fluorescence microscopy); type: in vivo, female HAN-NmRI strain mice; conditions: daily doses 25, 2.5 and 0.25 μg on 3 days; spleen isolated on day 4
Method: as §1, §2
(§6) To the isolated splenic lymphocytes there were added fluorescein isothiocyanate labelled antimouse antibodies (for the determination of lymphocytes B) and anti-Thy 1 monoclonal antibodies (for the determination of lymphocytes T) respectively. After incubation and rinsing with RPMI 1640 medium (Gibco, Great Britain), the lymphocytes were counted by fluorescence microscopy.

[8] = Toxicity, average lethal dose (LD50); type: in vivo; conditions: i.v. application, male mice
Method: The average lethal dose (LD50) at i.v. application of the compound 1 in male mice was >500 mg/kg.

[9] = test system: splenic lymphocytes B; assay: Determination of the number of lymphocytes B (splenic, fluorescence microscopy); type: in vivo, female HAN-NmRI strain mice; conditions: daily doses 25, 2.5 and 0.25 μg on 3 days; spleen isolated on day 4
Method: as §1, §2, §6

[10] = test system: peritoneal macrophages; assay: Activation of peritoneal macrophages (ferricytochrome C reduction) with additional in vitro PMA stimulation; type: in vivo, female HAN-NmRI strain mice; conditions: for Difference in absorbancies of the test sample and of the blank per mg of cell protein, x ± s.e.m (n): control 1004 ± 38
Method: as §1, §2, §3, §4, §5

[11] = daily dose 0.25 μg for 3 consecutive days
[12] = daily dose 2.5 μg for 3 consecutive days
[13] = daily dose 25 μg for 3 consecutive days

SMILES: CC(=O)N[C@@H]1CCCC[C@H]1OCC(=O)N[C@@H](C)C(=O)N[C@H](CCC(=O)O)C(=O)O (relative stereo) [Compound 1, N-[trans-2-(2'-acetylaminocyclohexyloxy)acetyl]-L-alanyl-D-glutaminic acid]
- maturation of lymphocytes B to plasma cells [1]: enhances the muturation of lymphocytes B to plasma cells
- Time needed for the tumour growth to the volume of 150 mm^3, Number of days (± SD) ([2]; 2.5 μg daily i.p.): 6.4 ± 0.9 days
- Growth delay (± SD) ([2]; 2.5 μg daily i.p., p<0.2 compared with control): 0.9 ± 0.4
- Time needed for the tumour growth to the volume of 150 mm^3, Number of days (± SD) ([2]; 25.0 μg daily i.p.): 7.3 ± 1.3 days
- Growth delay (± SD) ([2]; 25.0 μg daily i.p., p<0.002 compared with control): 1.8 ± 0.4
- difference in antitumour activity between the higher and the lower dose ([2]; 25 μg versus 2.5 μg): no statistically significant difference in activity between the higher and the lower dose
- delay in tumour growth in combination with tumour necrosis factor ([2]; compound 1 2.5 μg combined with recombinant tumour necrosis factor α (5×10^5 U)): increased delay in tumour growth
- antitumour activity in comparison to the control ([2]; dose 25 μg, p<0.002): moderate and statistically significant
- pyrogenous activity [3]: did not show any pyrogenous activity
- number of peritoneal macrophages [4]: not altered to a statistically significant extent
- Amount of active thymidine incoporated in lymphocyte DNA (cpm), x ± s.e.m (n) [5, 11]: 10780 ± 2680 cpm
- Amount of active thymidine incoporated in lymphocyte DNA (cpm), x ± s.e.m (n) [5, 12]: 16830 ± 6610 cpm
- Amount of active thymidine incoporated in lymphocyte DNA (cpm), x ± s.e.m (n) [5, 13]: 25990 ± 7850 cpm
- immunomodulatory effect in lymphocytes T compared with MDP ([5]; dose 25 μg): statistically greater (p<0.05) immunomodulatory effect
- increase of the blastic activity of lymphocytes T ([5]; dose 25 μg, p<0.05, versus control): about 150%
- Difference in absorbancies of the test sample and of the blank per mg of cell protein, x ± s.e.m (n) ([6]; daily dose 0.25 μg): 237 ± 94
- Difference in absorbancies of the test sample and of the blank per mg of cell protein, x ± s.e.m (n) ([6]; daily dose 2.5 μg): 431 ± 85
- Difference in absorbancies of the test sample and of the blank per mg of cell protein, x ± s.e.m (n) ([6]; daily dose 25 μg): 489 ± 97
- increase of macrophage activity ([6]; dose 2.5 μg, p<0.06): 55%
- difference in macrophage activation between muramyl dipeptide and compound 1 ([6]; dose 25 μg): no statistically significant different
- increase of macrophage activity ([6]; dose 25 μg, p<0.05): 70%
- number of splenic lymphocytes T [7]: Neither the number of splenic lymphocites B nor of lymphocytes T was altered to a statistically significant extent
- average lethal dose (LD50) [8]: > 500 mg/kg
- number of splenic lymphocytes B [9]: Neither the number of splenic lymphocites B nor of lymphocytes T was altered to a statistically significant extent
- Difference in absorbancies of the test sample and of the blank per mg of cell protein, x ± s.e.m (n) [10, 11]: 1298 ± 334
- Difference in absorbancies of the test sample and of the blank per mg of cell protein, x ± s.e.m (n) [10, 12]: 1494 ± 199
- Difference in absorbancies of the test sample and of the blank per mg of cell protein, x ± s.e.m (n) [10, 13]: 1709 ± 374
- increase of macrophage activity ([10]; dose 2.5 μg, p<0.05): 50%
- difference in macrophage activation between muramyl dipeptide and compound 1 ([10]; dose 25 μg): no statistically significant different
- increase of macrophage activity ([10]; dose 25 μg): 70%
